Reference: patent publication US20210214359A1, “Compounds and Methods for Treating Bacterial Infections” (NEW YORK UNIVERSITY, priority 2018, published 2021)

Columns and labels:
[1] = target: T1, S. aureus CSE (Staphylococcus aureus, UniProt A0A0H3K724); assay: H2S produced by purified CSE in vitro; type: biochemical; conditions: read-out: IC50, reduction of enzymatic activity (H2S produced by purified CSE)
Protocol: (§1) The amount of H2S produced by purified CSE was measured in the presence of the compound of Ex. 80 and found strong reduction of enzymatic activity with IC50 about 100 nM (FIG. 2B). This IC50 values are 10- to 400-fold lower than those determined for conventional CSE inhibitors and correlates well with its binding affinity, KD, as determined by MicroScale Thermophoresis (MST) (FIG. 2C).

[2] = test system: methicillin-resistant USA300 strain; assay: growth inhibition test in combination with methicillin; type: cell-based, S. aureus; conditions: for bacterial growth, agent alone: single agent
Protocol: (§2) FIG. 3 illustrates inhibition of culture growth of drug-resistant S. aureus by (A) the compound of Ex. 80 (GO-0001197; labeled as #9077) (30 μM) and 50% MIC of methicillin (Met) in methicillin-resistant USA300 strain; or by (B) the compound of Ex. 80 (30 μM) and 50% MIC of vancomycin (Van) in vancomycin-resistant RN10659 strain.
(§3) Because H2S inhibitors dramatically reduce the effective dose of antibiotics, they may potentiate or augment the activity of antibiotics in the strains that acquired resistance to these antibiotics. The compound of Ex. 80 (GO-0001197) was evaluated with two clinically relevant antibiotics, methicillin and vancomycin, which have different mechanisms of resistance.

[3] = test system: vancomycin-resistant RN10659 strain; assay: growth inhibition test in combination with vancomycin; type: cell-based, S. aureus; conditions: for bacterial growth, agent alone: single agent
Protocol: as §2, §3

[4] = test system: human BJ cell line; assay: IncuCyte Cytotoxicity Assay; type: cell-based
Protocol: To determine toxicity of the compounds of the disclosure, an IncuCyte™ Cytotoxicity Assay (Essen BioScience) in the human BJ cell line was conducted. Cell cultures were supplemented with a chemical probe which entered the cell and labeled nuclei green fluorescence as cells die and membrane integrity is lost. Nuclei of live cells were labeled with red fluorescence. […] This cytotoxic concentration was over 50-fold higher than the optimal concentration of the compound of Ex. 80 for bacterial growth inhibition in liquid culture in combination with 10% MIC of gentamicin. Therefore, the compounds of the disclosure show low cytotoxicity in human cell lines and present desirable targets for the development of compositions for treating bacterial infections.

[5] = test system: HeLa cells; assay: cytotoxicity in HeLa cells using a different assay; type: cell-based
[6] = test system: S. aureus RN4220; assay: growth inhibition assay in liquid culture, potentiation of gentamicin (Gm); type: cell-based; conditions: compound at 0.375 μg/mL
Text: The compounds of the invention were screened in a growth inhibition assay in liquid culture of nonpathogenic S. aureus RN4220 to directly test whether a hit compound can potentiate the action of gentamicin (Gm) added at ≤10% the minimal inhibitory concentration (MIC). Gentamicin is a ribosome-targeting bactericidal antibiotic induces oxidative stress and is effective against MRSA strains. Although gentamicin is not a first-line antibiotic for monotherapy of staphylococcal infection, it is used in combination with vancomycin or β-lactams to treat serious infections, such as endocarditis.
The MIC results for the remaining compounds of the disclosure are provided in Table 2. % MIC activity of 51-100 is labeled “+”, % MIC activity of 21-50 is labeled “++”, and % MIC activity of ≤20 is labeled “+++”.

[7] = target: T1, S. aureus CSE; assay: binding to CSE by MicroScale Thermophoresis (MST)
Protocol: as §1

T1 sequence (A0A0H3K724 entry or part of it): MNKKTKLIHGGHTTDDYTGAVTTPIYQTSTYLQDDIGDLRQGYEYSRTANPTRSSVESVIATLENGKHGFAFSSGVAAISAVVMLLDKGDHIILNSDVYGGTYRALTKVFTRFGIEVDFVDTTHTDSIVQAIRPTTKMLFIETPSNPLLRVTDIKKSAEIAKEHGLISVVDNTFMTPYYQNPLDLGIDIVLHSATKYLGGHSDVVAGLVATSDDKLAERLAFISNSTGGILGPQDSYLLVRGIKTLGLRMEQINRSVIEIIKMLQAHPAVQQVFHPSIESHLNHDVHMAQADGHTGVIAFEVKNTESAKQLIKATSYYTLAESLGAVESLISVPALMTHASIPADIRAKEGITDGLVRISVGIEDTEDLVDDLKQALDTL

O=C(O)CNC(=O)Cn1ccc2ccc(Br)cc21 [Example 80, (2-(6-bromo-1H-indol-1-yl)acetyl)glycine]
IC50 [1]: ~0.1 µM
bacterial growth in co-treatment with methicillin ([2]; Ex. 80 10 μg/mL + methicillin 5 μg/mL): inhibition of bacterial growth
bacterial growth, agent alone [2]: did not affect bacterial growth
bacterial growth in co-treatment with vancomycin ([3]; Ex. 80 10 μg/mL + vancomycin 2 μg/mL): inhibition of bacterial growth
bacterial growth, agent alone [3]: did not affect bacterial growth
concentration at which more than a half of the cells died ([4]; human): 1,250 μM
concentration at which practically all cells died ([4]; human): 2,500 μM
concentration at which the compound becomes toxic to cells (conservative estimation) ([4]; human): ~500 µM
concentration at which the number of dead cells started to increase ([4]; human): 625 µM
cytotoxic concentration fold higher than optimal concentration for bacterial growth inhibition ([4]; versus liquid culture with 10% MIC of gentamicin): over 50 fold
cytotoxic concentration [5]: ~400 µM

CN[C@H](CC(C)C)C(=O)N[C@H]1C(=O)N[C@@H](CC(N)=O)C(=O)N[C@H]2C(=O)N[C@H]3C(=O)N[C@H](C(=O)N[C@H](C(=O)O)c4cc(O)cc(O)c4-c4cc3ccc4O)[C@H](O)c3ccc(c(Cl)c3)Oc3cc2cc(c3O[C@@H]2O[C@H](CO)[C@@H](O)[C@H](O)[C@H]2O[C@H]2C[C@](C)(N)[C@H](O)[C@H](C)O2)Oc2ccc(cc2Cl)[C@H]1O [vancomycin, reference compound]
bacterial growth, agent alone [3]: only slowed down growth

COc1cccc(OC)c1C(=O)N[C@@H]1C(=O)N2[C@@H]1SC(C)(C)[C@@H]2C(=O)O [methicillin, reference compound]
bacterial growth, agent alone [2]: only slowed down growth

O=C(O)c1cc(Cn2ccc3ccc(-c4cc5cccc(Cl)c5s4)cc32)[nH]n1 [Example 68, 5-{[6-(7-chloro-1-benzothiophen-2-yl)-1H-indol-1-yl]methyl}-1H-pyrazole-3-carboxylic acid]
% MIC at 0.375 μg/mL [6]: 10 (% MIC at 0.375 μg/mL)

C#CCC(N)C(=O)O (stereo not shown) [PAG, propargylglycine]
Kd [7]: ~90 µM
fold higher KD than Ex. 80 ([7]; MST, CSE): 225 fold
